Values quoted from earlier work as cited in patent US20100197666A1, “(THIO) -CARBAMOYL-CYCLOHEXANE DERIVATIVES AND METHOD FOR TREATING SCHIZOPHRENIA” (priority 2007, published 2010).

What was measured:
Settings in all cases: background statement; cited from earlier work
[1] = tested on: adrenergic receptor sites
histamine H1 = histamine H1 (Homo sapiens, UniProt P35367)
5-HT2C = 5-HT2C (Homo sapiens, UniProt P28335)
5-HT2C, sequence (P28335 33-458, species assumed): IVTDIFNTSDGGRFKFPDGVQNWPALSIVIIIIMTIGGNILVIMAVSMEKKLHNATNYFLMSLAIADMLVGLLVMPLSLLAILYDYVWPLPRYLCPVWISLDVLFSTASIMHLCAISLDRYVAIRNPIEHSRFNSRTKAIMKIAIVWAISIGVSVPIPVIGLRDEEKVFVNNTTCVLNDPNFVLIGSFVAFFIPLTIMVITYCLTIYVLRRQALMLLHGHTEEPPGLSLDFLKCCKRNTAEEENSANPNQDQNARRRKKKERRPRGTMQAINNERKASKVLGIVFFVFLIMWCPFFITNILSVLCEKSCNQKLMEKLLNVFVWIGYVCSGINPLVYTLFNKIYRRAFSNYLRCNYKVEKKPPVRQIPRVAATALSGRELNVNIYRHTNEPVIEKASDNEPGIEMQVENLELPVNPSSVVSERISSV

histamine H1, sequence (P35367 whole entry): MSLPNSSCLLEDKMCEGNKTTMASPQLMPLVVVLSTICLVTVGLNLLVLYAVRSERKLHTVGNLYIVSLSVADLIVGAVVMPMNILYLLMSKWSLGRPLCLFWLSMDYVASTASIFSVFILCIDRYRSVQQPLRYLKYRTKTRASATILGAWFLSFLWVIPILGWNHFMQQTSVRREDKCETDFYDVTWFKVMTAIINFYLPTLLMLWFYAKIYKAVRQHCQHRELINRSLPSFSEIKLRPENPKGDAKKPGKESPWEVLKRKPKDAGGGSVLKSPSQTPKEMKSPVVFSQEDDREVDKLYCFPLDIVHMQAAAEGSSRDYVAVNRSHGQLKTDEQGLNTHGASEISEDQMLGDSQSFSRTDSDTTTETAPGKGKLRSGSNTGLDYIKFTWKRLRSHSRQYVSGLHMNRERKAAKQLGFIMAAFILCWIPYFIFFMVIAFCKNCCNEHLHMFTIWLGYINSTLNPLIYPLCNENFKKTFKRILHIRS

CN(C)C(=O)NC1CCC(CCN2CCN(c3cccc(Cl)c3Cl)CC2)CC1.Cl (stereo not drawn) [trans-4-{2-[4-(2,3-dichlorophenyl)-piperazin-1-yl]-ethyl}-N,N-dimethylcarbamoyl-cyclohexylamine hydrochloride]
low potency: potency at adrenergic receptor sites [1] | potency at histamine H1 receptor site (histamine H1) | potency at 5-HT2C receptor site (5-HT2C)
